Read-outs that look alike come from different tables or passages of the source.
Assays:
HIV-1 = assay: Anti-viral activity: syncytium formation (Sup T1) or reverse transcriptase assay (H9); assay type: cell-based
Experimental: The anti-viral activity of the compounds of the present invention was determined by measuring the concentration of the compounds that inhibits the proliferation of HIV by 50%(IC50) through a survey for syncytium formation or reverse transcriptase assay.
1×10^5 cells of each of H9(ATCC HTB 176) and Sup T1 cell lines were added to the wells of a 24-well microtiter plate and various concentrations so the compounds of the present invention were added thereto. 200 TCID50 (200-fold of 50% tissue culture infection dose) of HIV-1 inoculum and rpmi-1640 medium(Sigma Chemical Co., U.S.A) were added successively to the wells and the plate was incubated at 37° C. In case of Sup T1, the number of syncytium formed was investigated after 3 to 9 days. IC50 of each compound was determined by measuring the concentration of inhibitor that can reduce the number of syncytium by 50% compared with those formed in the same condition without the inhibitor.
In case of H9, three-quarters(3/4) of the culture medium in volume was refreshed every 3 days; and 6 ml of the culture fluid was centrifuged at 1000 rpm for 10 minutes. To 5 ml of the resulting supernatant were added 2.5 ml of 30% polyethyleneglycol(PEG, M.W. 6000-8000) and 0.4M NaCl. The resulting solution was allowed to stand at 0° C. overnight to precipitate virus particles. The solution was centrifuged at 2000 rpm for 45 minutes, the supernatant was discarded therefrom and the precipitate was diluted with 20 μl of a reverse transcriptase suspension buffer(50 mM tris-HCl, pH 7.5, 1 mM dithiothreitol, 20% glycerol, 0.25M KCl and 0.25% Triton X-100). The resulting suspension was stored in an Effendorf tube at -70° C. until used. A procedure of freezing said virus suspension for 2 minutes in dry ice and thawing same at 37° C. for 2 minutes was repeated three times and the resulting suspension was centrifuged at 4° C. The resulting supernatant was used in carrying out the reverse transcriptase assay.
10 μl of the said viral suspension was added to a solution of: 10 μl of buffer solution(250 mM tris-HCl, pH 7.5, 37.5 mM MgCl2, 0.25% triton X-100), 1.2 μl of 200 mM dithiothreitol, 5 μl of 10 μM oligo(dT)-poly(A)(Boeringer Manheim, 12-18 oligomer), 1 μl(1 μCi) of ^3 H-TTP(Thymidinetri-phosphate) and 23.6 μl of water; and the resulting mixture was placed at 37° C. After 1 hour, the mixture was poured onto a WHATMAN DEB1 filter and the filter was washed three times with 5 ml of 2×SSC buffer solution(17.53 g of sodium chloride, 8.82 g of sodium citrate, pH 7.0, 1 liter of water) for about 10 minutes each time and twice with 95% ethanol for 10 seconds. The filter was put onto aluminium foil and dried with an infra-red lamp. The amount of radioactivity was counted using a liquid scintillation counter. IC50 of each compound was determined by measuring the concentration of inhibitor that can reduce the activity of reverse transcriptase by 50%.

H9 cell or Sup T1 cell = assay: Cytotoxicity in H9 or Sup T1 cells (trypan blue dye exclusion); assay type: cell-based; settings: human, h9 or sup t1 cells
Experimental: (§1) To determine the cytotoxicity of the compounds of the present invention, 0.1 μM to 100 μM of the novel compounds were added to H9 cell or Sup T1 cell and the mixture was cultured on a rpmi-1640 medium at 37° C. The medium was refreshed every 3 days and the extent of cell proliferation was observed using Hemacytometer according to the trypan blue dye exclusion technique which is well known in the art. CT50 (i.e., concentration that causes death of cells by 50%) was determined. For reference, AZT(Burrows-Wellcome), A-75925 (Abbott, C2 symmetric compound) and Ro-31-8959(F. Hofmann-La Roche) were used as control compounds.

[1] = as above; assay type: cell-based; settings: human
Experimental: as §1

HIV-1 protease = biological target: T1, HIV-1 protease (Human immunodeficiency virus type 1 group M subtype B, UniProt P04585); assay: Assay for inhibitory effect on HIV protease (residual enzyme activity, HPLC of substrate cleavage); assay type: biochemical; settings: pH 5.5; for Ki / kinact: HIV-1 protease 2.6 nM; for Ki: inhibition constant; for kinact: rate constant of covalent bond formation, read-out: kina (converted); for kinact/KI: second order rate constant, HIV-1 protease, read-out: kina /KI (converted)
T1 construct: 2.6 nM of HIV-1 protease
Procedure, shortened: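 HIV-1 protease (2.6 nM) incubated with inhibitor in 50 mM sodium acetate pH 5.5, 1 mM DTT, 1 mM EDTA, 0.75 M ammonium sulfate, 0.2 M NaCl, 0.1% NP40. Residual activity was sampled over time using 100 μM p-NO2-Phe undecapeptide substrate (KM 20 μM), HPLC, 280 nm. kobs came from ln(activity)-versus-time slope, and KI and kina from kinetic fitting.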

[2] = Human immunodeficiency virus 1, SUP-T1
[3] = concentration that causes death of cells by 50%, H9 or Sup T1 cells, 37° C, read-out: CT50 (the source's name)

CC(C)[C@H](NC(=O)OCc1ccccc1)C(=O)N[C@@H](Cc1ccccc1)[C@@H](O)[C@H](O)[C@H](Cc1ccccc1)NC(=O)[C@@H](NC(=O)OCc1ccccc1)C(C)C [A-75925, reference compound]
IC50 (HIV-1; inhibits proliferation of HIV by 50%, Sup T1 syncytium or H9 reverse transcriptase assay, 37° C, read-out: IC50): 250 nM | CC50 (H9 cell or Sup T1 cell): > 100000 nM

CC(C)C(NC(=O)C[C@@H]1O[C@@H]1[C@H](Cc1ccccc1)NC(=O)[C@H](CC(N)=O)NC(=O)c1ccc2ccccc2n1)C(C)C [compound 46]
IC50 (HIV-1; [2]): 40 nM | CC50 [1, 3]: > 100000 nM | Ki (HIV-1 protease): 0.9 nM | kinact (HIV-1 protease): 0.00267 s⁻¹ | kinact/KI (HIV-1 protease): 3000 M⁻¹ s⁻¹

CC[C@H](C)[C@H](NC(=O)C[C@@H]1O[C@@H]1[C@H](Cc1ccccc1)NC(=O)[C@H](CC(N)=O)NC(=O)c1ccc2ccccc2n1)C(=O)N(C)C [compound 26]
IC50 (HIV-1; [2]): 500 nM | CC50 [1, 3]: > 100000 nM | Ki (HIV-1 protease): > 10000 nM

CC(C)[C@@H](CCCc1ccccc1)NC(=O)C[C@@H]1O[C@@H]1[C@H](Cc1ccccc1)NC(=O)[C@H](CC(N)=O)NC(=O)c1ccc2ccccc2n1 [compound 50]
IC50 (HIV-1; [2]): > 5000 nM | CC50 [1, 3]: > 100000 nM | Ki (HIV-1 protease): 950 nM | kinact (HIV-1 protease): 0.025 s⁻¹ | kinact/KI (HIV-1 protease): 26700 M⁻¹ s⁻¹

CC(C)[C@H](NC(=O)C[C@@H]1O[C@@H]1[C@H](Cc1ccccc1)NC(=O)[C@H](CC(N)=O)NC(=O)c1ccc2ccccc2n1)c1ccccc1 [compound 47]
IC50 (HIV-1; [2]): 70 nM | CC50 [1, 3]: > 100000 nM | Ki (HIV-1 protease): 12 nM | kinact (HIV-1 protease): 0.0383 s⁻¹ | kinact/KI (HIV-1 protease): 3.17e+06 M⁻¹ s⁻¹

CC[C@H](C)[C@H](NC(=O)C[C@@H]1O[C@@H]1[C@H](Cc1ccccc1)NC(=O)[C@H](CC(N)=O)NC(=O)c1ccc2ccccc2n1)C(=O)NC [compound 25, N-{5-L-[[N-(2-quinolinecarbonyl)-L-asparaginyl]amino]-(4R,3S)-epoxy-6-phenylhexanoyl}-L-isoleucinyl-methylamide]
IC50 (HIV-1; [2]): 500 nM | CC50 [1, 3]: > 100000 nM | Ki (HIV-1 protease): 20 nM | kinact (HIV-1 protease): 0.003 s⁻¹ | kinact/KI (HIV-1 protease): 150000 M⁻¹ s⁻¹

NC(=O)C[C@H](NC(=O)c1ccc2ccccc2n1)C(=O)NC[C@@H]1O[C@@H]1[C@H](Cc1ccccc1)NC(=O)[C@H](CC(N)=O)NC(=O)c1ccc2ccccc2n1 [compound 84]
IC50 (HIV-1; [2]): 1000 nM | CC50 [1, 3]: > 100000 nM | Ki (HIV-1 protease): 500 nM | kinact (HIV-1 protease): 0.00333 s⁻¹ | kinact/KI (HIV-1 protease): 6670 M⁻¹ s⁻¹

NC(=O)C[C@H](NC(=O)OCc1ccccc1)C(=O)NC[C@@H]1O[C@@H]1[C@H](CC1CCCCC1)NC(=O)[C@H](CC(N)=O)NC(=O)OCc1ccccc1 [compound 85]
IC50 (HIV-1; [2]): 5000 nM | CC50 ([1]; h9 or sup t1 cells): > 100000 nM | Ki (HIV-1 protease): > 10000 nM

CC(C)[C@H](NC(=O)OCc1ccccn1)C(=O)NC[C@@H]1O[C@@H]1[C@H](Cc1ccccc1)NC(=O)[C@@H](NC(=O)OCc1ccccn1)C(C)C [compound 77]
IC50 (HIV-1; [2]): 1000 nM | CC50 [1, 3]: > 100000 nM | Ki (HIV-1 protease): 100 nM | kinact (HIV-1 protease): 0.004 s⁻¹ | kinact/KI (HIV-1 protease): 40000 M⁻¹ s⁻¹

NC(=O)C[C@H](NC(=O)COc1cccc2ccccc12)C(=O)N[C@@H](Cc1ccccc1)[C@H]1O[C@H]1CCc1ccccc1 [compound 61, 2-L-(N-1-naphthoxyacetyl-L-asparaginyl)amino-(3R,4S)-epoxy-1,6-diphenylhexane]
IC50 (HIV-1; [2]): 1000 to 2000 nM | CC50 [1, 3]: > 100000 nM | Ki (HIV-1 protease): 250 nM | kinact (HIV-1 protease): 0.0005 s⁻¹ | kinact/KI (HIV-1 protease): 2000 M⁻¹ s⁻¹

CC[C@H](C)[C@H](NC(=O)C[C@@H]1O[C@@H]1[C@H](CC1CCCCC1)NC(=O)[C@@H](NC(=O)N(C)Cc1ccccn1)C(C)C)C(=O)OC [compound 39, N-{5-L-[[N,N-(2-pyridylmethyl)(methyl)-amino]carbonylvalinyl]amino-(4R, R3S)-epoxy-6-(cyclohexylmethyl)-hexanoyl}-L-isoleucine methyl ester]
IC50 (HIV-1; [2]): 1000 nM | CC50 [1, 3]: > 100000 nM | Ki (HIV-1 protease): > 10000 nM

CC[C@H](C)[C@H](NC(=O)C[C@@H]1O[C@@H]1[C@H](Cc1ccccc1)NC(=O)[C@H](CC(N)=O)NC(=O)c1ccc2ccccc2n1)C(N)=O [compound 27, N-{5-L-[[N-(2-quinolinecarbonyl)-L-asparaginyl]amino]-(4R,3S)-epoxy-6-phenylhexanoyl}-L-isoleucinyl amide]
IC50 (HIV-1; [2]): 1000 nM | CC50 [1, 3]: ~10000 nM | Ki (HIV-1 protease): 3 nM | kinact (HIV-1 protease): 0.00333 s⁻¹ | kinact/KI (HIV-1 protease): 1.12e+06 M⁻¹ s⁻¹

CC(C)[C@H](NC(=O)OCc1ccccc1)C(=O)N[C@@H](Cc1ccccc1)[C@H]1O[C@H]1CCc1ccccc1 [compound 53, 2-L-(N-benzyloxycarbonyl-L-valinyl)amino-(3R,4S)-epoxy-1,6-diphenylhexane]
IC50 (HIV-1; [2]): 1000 to 1500 nM | CC50 [1, 3]: > 100000 nM | Ki (HIV-1 protease): 91 nM | kinact (HIV-1 protease): 0.0015 s⁻¹ | kinact/KI (HIV-1 protease): 16500 M⁻¹ s⁻¹

CC[C@H](C)[C@H](NC(=O)C[C@@H]1O[C@@H]1[C@H](Cc1ccccc1)NC(=O)[C@H](CC(N)=O)NC(=O)c1ccc2ccccc2n1)C(=O)NCc1ccccn1 [compound 9]
IC50 (HIV-1; [2]): 8000 nM | CC50 [1, 3]: > 100000 nM | Ki (HIV-1 protease): 55 nM | kinact (HIV-1 protease): 0.00183 s⁻¹ | kinact/KI (HIV-1 protease): 33300 M⁻¹ s⁻¹

NC(=O)C[C@H](NC(=O)OCc1ccccc1)C(=O)N[C@@H](Cc1ccccc1)[C@H]1O[C@H]1CCc1ccccc1 [compound 52, 2-L-(N-benzyloxycarbonyl-L-asparaginyl)amino-(3R,4S)-epoxy-1,6-diphenylhexane]
IC50 (HIV-1; [2]): 700 to 1200 nM | CC50 [1, 3]: > 100000 nM | Ki (HIV-1 protease): 100 nM | kinact (HIV-1 protease): 0.0005 s⁻¹ | kinact/KI (HIV-1 protease): 5000 M⁻¹ s⁻¹

CC(C)[C@H](NC(=O)C[C@@H]1O[C@@H]1[C@H](Cc1ccccc1)NC(=O)[C@H](CC(N)=O)NC(=O)c1ccc2ccccc2n1)C(N)=O [compound 32]
IC50 (HIV-1; [2]): 500 nM | CC50 [1, 3]: > 100000 nM | Ki (HIV-1 protease): 5 nM | kinact (HIV-1 protease): 0.00367 s⁻¹ | kinact/KI (HIV-1 protease): 733000 M⁻¹ s⁻¹

CC(C)C(Cc1ccccc1)NC(=O)C[C@@H]1O[C@@H]1[C@H](Cc1ccccc1)NC(=O)[C@H](CC(N)=O)NC(=O)c1ccc2ccccc2n1 (stereo partly drawn) [compound 48]
IC50 (HIV-1; [2]): 500 nM | CC50 [1, 3]: ~5000 nM | Ki (HIV-1 protease): 600 nM | kinact (HIV-1 protease): 0.035 s⁻¹ | kinact/KI (HIV-1 protease): 58300 M⁻¹ s⁻¹

CC(C)[C@H](NC(=O)OCc1ccccc1)C(=O)NC[C@@H]1O[C@@H]1[C@H](Cc1ccccc1)NC(=O)[C@H](CC(N)=O)NC(=O)OCc1ccccc1 [compound 75]
IC50 (HIV-1; [2]): 1000 nM | CC50 [1, 3]: > 10000 nM | Ki (HIV-1 protease): > 10000 nM

CC(C)[C@H](NC(=O)OCc1ccccc1)C(=O)NC[C@@H]1O[C@@H]1[C@H](CC1CCCCC1)NC(=O)[C@@H](NC(=O)OCc1ccccc1)C(C)C [compound 86, 4S-1,4-bis[N-(N'-benzyloxycarbonyl-L-valinyl)amino]-5-cyclohexyl-(2S,3R)-(Z)-epoxypentane]
IC50 (HIV-1; [2]): 500 nM | CC50 [1, 3]: > 100000 nM | Ki (HIV-1 protease): 50 nM | kinact (HIV-1 protease): 0.00333 s⁻¹ | kinact/KI (HIV-1 protease): 66700 M⁻¹ s⁻¹
